These results are taken from US12629355B2, “Drug inhibitor against migration and invasion of cancer cells and methods of treating against metastasis of cancer cells” (HOWARD UNIVERSITY, priority 2019, dated 2026).

Type in all cases: cell-based
In assay [1] the test system is U251 cells. Kind of assay: Transwell invasion assay (FIG. 10). The settings on record: serum free media with TGF in upper chamber, about 14 hours. The protocol:
A transwell assay is conducted as a means for testing for invasion. A transwell invasion assay can be used to test the invasive potential of cells in response migration inducers or inhibitors. This assay is also known as modified Boyden chamber assay. During this assay, cells are placed on the upper layer of a cell culture insert with permeable membrane and a solution containing the test agent is placed below the cell permeable membrane. Following an incubation period (3-18 hours) at 37° C. in a humidified chamber, the cells that have stuck during the migration towards the lower chamber through the membrane are stained and counted. […] Collectively, these findings (as shown in FIG. 9 and FIG. 10) indicate that administering a representative compound (SD 29-14) played a significant functional role in the regulation of U251 glioma cell migration and invasion.
In measuring cell invasion, 12-well transwell chambers (Corning Inc., Kennebunk, ME) were used with 6.5 mm inserts and 8.0 μm membrane pore size. […] Invasive cells on the bottom surface were fixed with 4% paraformaldehyde for 15 min and stained with 0.2% crystal violet for 15 minutes and the cells were counted and photographed under a light microscope.

Another assay addresses T1, RACK1 protein (Homo sapiens, UniProt P63244).
T1 construct: endogenous in cells; host or cells: MCF-7
Kind of assay: RACK1 protein expression, western blot (FIG. 7). Particulars: MCF-7 cells, 6 days, compound added on day 1 and day 4. How it is done: As to FIG. 7, MCF-7 cells were washed three times in PBS after growth on MEM media for 6 days. The indicated compounds were added on day 1 and day 4 of the treatment. The cells were lysed in the lysis buffer (Cell Signaling, MA) supplemented with protease inhibitor cocktail (Sigma-Aldrich), Protein Tyrosine phosphatase inhibitors (Santa Cruz Biotechnology, TX), and N-Ethylamaleimide (Sigma-Aldrich) at 25 mM to inhibit de-sumoylation. Twenty five micrograms of proteins were loaded on the BIORAD company's 4-12% precast polyacrylamide gel, transferred to a PVDF membrane and then blocked with 5% non-fat milk (Biorad) for one hour, washed and incubated overnight at 4 C with the RACK1 antibody (1:2500 dilution) purchased from the Santa Cruz Biotechnology. After overnight incubation, the membrane was washed 3× in PBST and then incubated with a horseradish peroxidase-coupled mouse secondary antibody for an hour at room temperature and the bands were detected with enhanced chemiluminescence (Pierce, Rockford, IL, USA), according to standard methods. […] This served as the loading control.
A general note: In western blotting, separated proteins are transferred to a membrane and probed.

Assay [2] deals with U251 cells. The experiment in a line: F-actin foci and pY397-FAK organization, immunofluorescence (FIG. 20). The settings on record: 96 h, 2 ng/ml TGF-beta1. An excerpt:
Cell cytoskeleton plays a significant role during the migration and invasion of cancer cells. Changes in the cytoskeleton accompanies the cell shape changes and which subsequently changes the dynamic actin polymerization and depolymerization process. The attachment of cells to the substrate is integrin dependent and as such it was postulated that the RACK1 dependent migration will also regulate the cytoskeleton changes. In this regard, F-actin foci helps stress fiber based directional filipodia development. To visualize F-actin, we used […] that labels the F-actins. FAK located at focal contact which is actin based anchoring junction that links the cells with the ECM and mostly used by motile cells like the metastatic cancer cells. FAK is known as the key regulator of the F-actin dynamics (Li et al., 2013). (Li S Y, et al., Focal adhesion kinase is a regulator of F-actin dynamics: New insights from studies in the testis, Spermatogenesis, 3 (3): e25385 (2013).
The presence of pY397-FAK can be seen in a linear organized way within the migratory structures but such organized presence of the pY397-FAK was not seen in the presence of the representative compound (SD29-14).
As to FIG. 20, and methods, U251 cells were grown on glass coverslip for 96 h in the presence or absence of SD29-14 containing MEM media with 2 ng/ml TGF-beta1 growth factor. […]

Assay [3] concerns the target T2, RACK1A Y248 phosphorylation (Arabidopsis thaliana, UniProt O24456).
T2 construct: from tissue; host or cells: one-week old Arabidopsis seedlings (whole-seedling lysate)
Kind of assay: Stress hormone (ABA) induced RACK1A Y248 phosphorylation in Arabidopsis seedlings, western blot (FIG. 1). The settings on record: 10 uM ABA, 12 hours. The text has this:
The results of lab experiment establish the compounds identified by in silico screen to prevent RACK1 Y248 phosphorylation can inhibit RACK1 Y248 phosphorylation and confirm their utility in their application in RACK1 mediated cellular pathways. Y248 phosphorylation has previously been identified as a key event needed for RACK1 mediated scaffolding activities by regulating protein-protein interactions in plants. The corresponding residue in human RAKI is also a key requirement for scaffolding activities needed at the receptor level during the invasion and migration of cancer cells. […] The knock-out plant did maintain both the RACK1B protein and the RACK1C protein, but the antibody was raised to detect the RACK1A Y248 phosphorylation only.
As to FIG. 1, since RACK1 is a regulator of plant stress hormone Abscisic acid (ABA) (Guo et al., 2009), one-week old Arabidopsis seedlings were treated with 10 uM of ABA in the presence/absence of the inhibitor compounds for 12 hours in a growth chamber (overnight) at 22 C mostly in the night dark. Lysates isolated in buffer (Cell Signaling, MA) supplemented with plant protease inhibitor (Sigma-Aldrich), Protein Tyrosine phosphatase inhibitors (Santa Cruz Biotechnology, TX), and N-Ethylamaleimide (Sigma-Aldrich) at 25 mM to inhibit de-sumoylation. […]

T2 sequence (O24456 whole entry): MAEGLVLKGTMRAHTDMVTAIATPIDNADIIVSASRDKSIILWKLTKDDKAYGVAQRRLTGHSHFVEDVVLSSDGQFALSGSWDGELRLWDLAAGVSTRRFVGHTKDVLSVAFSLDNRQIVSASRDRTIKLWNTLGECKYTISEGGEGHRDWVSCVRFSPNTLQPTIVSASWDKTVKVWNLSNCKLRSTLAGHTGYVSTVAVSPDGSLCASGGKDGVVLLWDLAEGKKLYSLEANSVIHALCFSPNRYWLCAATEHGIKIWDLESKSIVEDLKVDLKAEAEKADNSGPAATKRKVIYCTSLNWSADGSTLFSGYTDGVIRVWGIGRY

On to `Nn1c(S)nnc1-c1cc(Cl)cc(Cl)c1` [SD 29-14], for which, in the assay with U251 cells [1], the “cells on the membrane (invasion)” value is given as “hardly any cells were observed on the membrane”. In addition, the RACK1 protein expression entry on RACK1 protein is on record as “significant of RACK1 proteins”. The “number and intensity of F-actin foci” value in the assay with U251 cells [2] is “reduced the number and intensity of the F-actin foci”. In assay [3], the “RACK1A Y248 phosphorylation with stress hormone present” value was “prevents Y248 phosphorylation”.
